Reference: US7994185B2, “Benzene sulfonamide thiazole and oxazole compounds” (Glaxo Smith Kline LLC, priority 2008, dated 2011)
Where two headings read alike, the source gives them in different places.

Assays:
[1] = system: Human melanoma cancer cells (SK-MEL-28); assay: Cell growth inhibition assay (CellTiter-Glo), SK-MEL-28; format: cell-based
[2] = target: T1, BRAFV600E full-length (amino acids 2-766) (Homo sapiens, UniProt P15056, V600E); assay: B-Raf Accelerated MEK ATPase assay (BRAMA); format: biochemical; settings: categorized
T1 construct: His6-tagged BRAFV600E full-length (amino acids 2-766); His6; made in house; host or cells: baculovirus expression system (insect cells)
T1 sequence (P15056 2-766 V600E): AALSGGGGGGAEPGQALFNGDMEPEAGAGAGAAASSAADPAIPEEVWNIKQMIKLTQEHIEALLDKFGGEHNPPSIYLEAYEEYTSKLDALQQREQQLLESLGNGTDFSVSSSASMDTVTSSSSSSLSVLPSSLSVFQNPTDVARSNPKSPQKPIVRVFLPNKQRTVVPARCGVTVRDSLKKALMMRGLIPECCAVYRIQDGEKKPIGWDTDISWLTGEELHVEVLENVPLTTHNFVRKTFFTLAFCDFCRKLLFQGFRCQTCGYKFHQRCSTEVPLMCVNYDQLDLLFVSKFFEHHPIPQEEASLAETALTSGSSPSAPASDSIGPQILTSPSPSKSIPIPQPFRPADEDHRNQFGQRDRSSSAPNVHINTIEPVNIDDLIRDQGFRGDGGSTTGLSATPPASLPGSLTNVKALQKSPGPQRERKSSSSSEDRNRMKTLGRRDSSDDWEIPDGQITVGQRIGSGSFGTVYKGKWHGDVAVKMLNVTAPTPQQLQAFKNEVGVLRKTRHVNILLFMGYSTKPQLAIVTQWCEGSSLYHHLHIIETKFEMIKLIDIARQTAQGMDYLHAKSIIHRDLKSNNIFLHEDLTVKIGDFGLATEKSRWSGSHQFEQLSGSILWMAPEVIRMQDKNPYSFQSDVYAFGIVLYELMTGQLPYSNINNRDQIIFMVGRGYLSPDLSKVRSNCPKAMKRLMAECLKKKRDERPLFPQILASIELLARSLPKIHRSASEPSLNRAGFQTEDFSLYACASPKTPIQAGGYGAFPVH
Procedure, shortened: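 Coupled-enzyme readout: ADP generated by MEK-mediated ATP hydrolysis, uncoupled from ERK phosphorylation, is linked to NADH oxidation through pyruvate kinase and lactate dehydrogenase.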

[3] = system: Human colon tumor cells (Colo205); assay: Cell growth inhibition assay (CellTiter-Glo), Colo205; format: cell-based
Procedure, shortened: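 Read-out was CellTiter-Glo luminescence (total ATP as a cell-number surrogate), expressed as % inhibition against DMSO vehicle wells. Before that, cells grown in RPMI/10% FBS were treated for 3 days at 37 °C with ten 1:3-spaced compound concentrations, final DMSO 0.2%.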

[4] = SK-MEL-28, Table 3b, later runs, average for the one or more runs, categorized, read-out: IC50 for SK-MEL-28
[5] = B-Raf pIC50, Table 1b, later runs, average pIC50 for the one or more runs
[6] = COLO 205, Table 2b, later runs, average for the one or more runs, categorized, read-out: IC50 for Colo205
[7] = SK-MEL-28, 72 h, Table 3a, 3 days incubation, read-out: Activity in SK-MEL-28 Tumor Cells
[8] = B-Raf Activity, Table 1a, highest pIC50 for the one or more runs
[9] = COLO 205, 72 h, Table 2a, 3 days incubation, read-out: Activity in Colo205 Tumor Cells
[10] = Table 1b, later runs, average pIC50 for the one or more runs, read-out: B-Raf pIC50 (converted)

With `CC(C)(C)c1nc(-c2cccc(NS(=O)(=O)c3cc(F)ccc3F)c2Cl)c(-c2ccnc(CCS(C)(=O)=O)n2)s1` [Example 252, N-[2-chloro-3-(2-(1,1-dimethylethyl)-5-{2-[2-(methylsulfonyl)ethyl]-4-pyrimidinyl}-1,3-thiazol-4-yl)phenyl]-2,5-difluorobenzenesulfonamide] the IC50 [1, 4] was < 100 nM, the IC50 [2, 5] was ≤ 3.16 nM and the IC50 [3, 6] was < 100 nM.

For `CC(C)CNc1nccc(-c2sc(C3CCOCC3)nc2-c2cccc(NS(=O)(=O)c3cc(F)ccc3F)c2F)n1` [Example 67, 2,5-Difluoro-N-{2-fluoro-3-[5-{2-[(2-methylpropyl)amino]-4-pyrimidinyl}-2-(tetrahydro-2H-pyran-4-yl)-1,3-thiazol-4-yl]phenyl}benzenesulfonamide], the IC50 [1, 7] was < 100 nM, the IC50 [1, 4] was < 100 nM and the IC50 [2, 8] was < 100 nM. The IC50 [2, 5] was ≤ 3.16 nM, the IC50 [3, 9] was < 100 nM and the IC50 [3, 6] was < 100 nM.

Work on `Nc1nccc(-c2sc(N3CCOCC3)nc2-c2cccc(NS(=O)(=O)C3CCCCC3)c2F)n1` [Example 48, N-{3-[5-(2-Amino-4-pyrimidinyl)-2-(4-morpholinyl)-1,3-thiazol-4-yl]-2-fluorophenyl}cyclohexanesulfonamide] yielded an IC50 [1, 7] of 100 to 1000 nM, an IC50 [1, 4] of 100 to 1000 nM and an IC50 [2, 8] of 100 to 1000 nM. The IC50 [2, 5] was 31.6 to 1000 nM, the IC50 [3, 9] was 100 to 1000 nM and the IC50 [3, 6] was 100 to 1000 nM.

In the case of `CC(C)CNc1nccc(-c2sc(C3CCOCC3)nc2-c2cccc(NS(=O)(=O)c3c(F)cccc3F)c2Cl)n1` [Example 18, N-{2-Chloro-3-[5-{2-[(2-methylpropyl)amino]-4-pyrimidinyl}-2-(tetrahydro-2H-pyran-4-yl)-1,3-thiazol-4-yl]phenyl}-2,6-difluorobenzenesulfonamide], the IC50 [1, 7] is reported as < 100 nM, the IC50 [1, 4] is reported as < 100 nM and the IC50 [2, 8] is reported as < 100 nM. For the same molecule, the IC50 [2, 5] was ≤ 3.16 nM, the IC50 [3, 9] was < 100 nM and the IC50 [3, 6] was < 100 nM.

With `Cc1nccc(-c2sc(C(C)(C)C)nc2-c2cccc(NS(=O)(=O)c3cccc(F)c3)c2F)n1` [Example 222, N-{3-[2-(1,1-dimethylethyl)-5-(2-methyl-4-pyrimidinyl)-1,3-thiazol-4-yl]-2-fluorophenyl}-3-fluorobenzenesulfonamide] the IC50 [1, 4] was < 100 nM, the IC50 [2, 10] was 3.16 to 31.6 nM and the IC50 [3, 6] was < 100 nM.

With `CS(=O)(=O)N1CCC(Nc2nccc(-c3sc(N4CCOCC4)nc3-c3cccc(NS(=O)(=O)c4c(F)cccc4F)c3F)n2)CC1` [Example 79, 2,6-Difluoro-N-{2-fluoro-3-[5-(2-{[1-(methylsulfonyl)-4-piperidinyl]amino}-4-pyrimidinyl)-2-(4-morpholinyl)-1,3-thiazol-4-yl]phenyl}benzenesulfonamide] the IC50 [1, 7] was < 100 nM, the IC50 [1, 4] was < 100 nM and the IC50 [2, 8] was < 100 nM. The IC50 [2, 5] was ≤ 3.16 nM, the IC50 [3, 9] was < 100 nM and the IC50 [3, 6] was < 100 nM.

For `CC(C)(C)c1nc(-c2c(F)ccc(NS(=O)(=O)c3c(F)cccc3F)c2F)c(-c2ccnc(N)n2)s1` [Example 107, N-{3-[5-(2-amino-4-pyrimidinyl)-2-(1,1-dimethylethyl)-1,3-thiazol-4-yl]-2,4-difluorophenyl}-2,6-difluorobenzenesulfonamide], the IC50 [1, 7] was < 100 nM, the IC50 [1, 4] was < 100 nM and the IC50 [2, 8] was < 100 nM. The IC50 [2, 5] was ≤ 3.16 nM, the IC50 [3, 9] was < 100 nM and the IC50 [3, 6] was < 100 nM.

`CC(C)(C)c1nc(-c2cccc(NS(=O)(=O)c3cc(F)ccc3F)c2Cl)c(-c2ccncn2)s1` [Example 228, N-{2-chloro-3-[2-(1,1-dimethylethyl)-5-(4-pyrimidinyl)-1,3-thiazol-4-yl]phenyl}-2,5-difluorobenzenesulfonamide] was tested, and the IC50 [1, 4] was < 100 nM, the IC50 [2, 5] was ≤ 3.16 nM and the IC50 [3, 6] was < 100 nM.

For `CC(C)c1nc(-c2ccc(F)c(NS(=O)(=O)c3cc(F)ccc3F)c2)c(-c2ccnc(NCC3CCN(C(=O)OC(C)(C)C)CC3)n2)s1` [Example 127], the IC50 [1, 7] was > 1000 nM, the IC50 [1, 4] was 1000 to 10000 nM and the IC50 [2, 8] was < 100 nM. The IC50 [2, 5] was 31.6 to 1000 nM, the IC50 [3, 9] was > 1000 nM and the IC50 [3, 6] was 1000 to 10000 nM.

`O=S(=O)(Nc1cccc(-c2nc(N3CCOCC3)sc2-c2ccncn2)c1Cl)c1cc(F)ccc1F` [Example 240, N-{2-chloro-3-[2-(4-morpholinyl)-5-(4-pyrimidinyl)-1,3-thiazol-4-yl]phenyl}-2,5-difluorobenzenesulfonamide] was tested, and the IC50 [1, 4] was < 100 nM, the IC50 [2, 5] was ≤ 3.16 nM and the IC50 [3, 6] was < 100 nM.

In the case of `CC(C)(CO)c1nc(-c2cccc(NS(=O)(=O)c3c(F)cccc3F)c2F)c(-c2ccnc(N)n2)s1` [Example 295, N-{3-[5-(2-amino-4-pyrimidinyl)-2-(2-hydroxy-1,1-dimethylethyl)-1,3-thiazol-4-yl]-2-fluorophenyl}-2,6-difluorobenzenesulfonamide], the IC50 [1, 4] is reported as < 100 nM, the IC50 [2, 5] is reported as ≤ 3.16 nM and the IC50 [3, 6] is reported as < 100 nM.

In the case of `CC(C)(O)CCc1nccc(-c2sc(C(C)(C)C)nc2-c2cccc(NS(=O)(=O)c3c(F)cccc3F)c2F)n1` [Example 249, N-(3-{2-(1,1-dimethylethyl)-5-[2-(3-hydroxy-3-methylbutyl)-4-pyrimidinyl]-1,3-thiazol-4-yl}-2-fluorophenyl)-2,6-difluorobenzenesulfonamide], the IC50 [1, 4] is reported as < 100 nM, the IC50 [2, 10] is reported as 3.16 to 31.6 nM and the IC50 [3, 6] is reported as < 100 nM.

`CC(C)CNc1nccc(-c2sc(N3CCOCC3)nc2-c2cccc(NS(=O)(=O)c3cc(F)ccc3F)c2F)n1` [Example 182] was tested, and the IC50 [1, 7] was < 100 nM, the IC50 [1, 4] was < 100 nM and the IC50 [2, 8] was < 100 nM. For the same molecule, the IC50 [2, 5] was ≤ 3.16 nM, the IC50 [3, 9] was < 100 nM and the IC50 [3, 6] was < 100 nM.

`CC(C)(C)c1nc(-c2cccc(NS(=O)(=O)c3c(F)cccc3F)c2Cl)c(-c2ccncn2)s1` [Example 237, N-{2-chloro-3-[2-(1,1-dimethylethyl)-5-(4-pyrimidinyl)-1,3-thiazol-4-yl]phenyl}-2,6-difluorobenzenesulfonamide] was tested, and the IC50 [1, 4] was < 100 nM, the IC50 [2, 10] was 3.16 to 31.6 nM and the IC50 [3, 6] was < 100 nM.

`CC(C)(C)c1nc(-c2cccc(NS(=O)(=O)c3ccccc3)c2F)c(-c2ccnc(N)n2)s1` [Example 219, N-{3-[5-(2-amino-4-pyrimidinyl)-2-(1,1-dimethylethyl)-1,3-thiazol-4-yl]-2-fluorophenyl}benzenesulfonamide] was tested, and the IC50 [1, 4] was < 100 nM, the IC50 [2, 10] was 3.16 to 31.6 nM and the IC50 [3, 6] was < 100 nM.

With `CC(C)c1nc(-c2cccc(NS(=O)(=O)c3cc(F)ccc3F)c2F)c(-c2ccnc(NCCNC(=O)OC(C)(C)C)n2)s1` [Example 189] the IC50 [1, 7] was < 100 nM, the IC50 [1, 4] was < 100 nM and the IC50 [2, 8] was < 100 nM. The IC50 [2, 5] was ≤ 3.16 nM, the IC50 [3, 9] was < 100 nM and the IC50 [3, 6] was < 100 nM.

For `CNc1nccc(-c2sc(C(C)C)nc2-c2ccc(F)c(NS(=O)(=O)c3cc(F)ccc3F)c2)n1` [Example 73, 2,5-Difluoro-N-{2-fluoro-5-[5-[2-(methylamino)-4-pyrimidinyl]-2-(1-methylethyl)-1,3-thiazol-4-yl]phenyl}benzenesulfonamide], the IC50 [1, 7] was > 1000 nM, the IC50 [1, 4] was 1000 to 10000 nM and the IC50 [2, 8] was < 100 nM. The IC50 [2, 10] was 3.16 to 31.6 nM, the IC50 [3, 9] was > 1000 nM and the IC50 [3, 6] was 1000 to 10000 nM.

With `CC(C)c1nc(-c2ccc(F)c(NS(=O)(=O)c3cc(F)ccc3F)c2)c(-c2ccnc(NCCS(C)(=O)=O)n2)s1` [Example 201] the IC50 [1, 7] was < 100 nM, the IC50 [1, 4] was < 100 nM and the IC50 [2, 8] was < 100 nM. For the same molecule, the IC50 [2, 5] was ≤ 3.16 nM, the IC50 [3, 9] was < 100 nM and the IC50 [3, 6] was < 100 nM.

With `CC(C)Nc1nccc(-c2sc(C(C)(C)C)nc2-c2cccc(NS(=O)(=O)c3c(F)cccc3F)c2F)n1` [Example 135] the IC50 [1, 7] was < 100 nM, the IC50 [1, 4] was < 100 nM and the IC50 [2, 8] was < 100 nM. For the same molecule, the IC50 [2, 5] was ≤ 3.16 nM, the IC50 [3, 9] was 100 to 1000 nM and the IC50 [3, 6] was 100 to 1000 nM.
